Values quoted from earlier work, collected in patent US20260335248A1, “ANTIFUNGAL AGENT ENCAPSULATED IN A LIPID NANOCRYSTAL FOR TREATING MUCORMYCOSIS” (MATINAS BIOPHARMA NANOTECHNOLOGIES, INC., priority 2022, published 2026).

Tested on: mucormycosis
Conditions: Luo et al., 2013

## CC[C@@H]([C@H](C)O)n1ncn(-c2ccc(N3CCN(c4ccc(OC[C@@H]5CO[C@@](Cn6cncn6)(c6ccc(F)cc6F)C5)cc4)CC3)cc2)c1=O [Posaconazole, posaconazole]
  fungal burdens in lungs and brain compared with placebo: effective in reducing the fungal burdens in lungs and brain
